One assay deals with Staphylococcus. The experiment in a line: Selective activity: geometric mean MIC in Staphylococcus. The assay is classed as cell-based. Conditions: for Geometric Mean MIC Staphylococcus / MIC: geometric mean over Staphylococcus strains; for Selectivity Enterococcus/Staphylococcus: ratio of geometric mean MIC Enterococcus to geometric mean MIC Staphylococcus.
Another assay deals with Enterococcus. The assay can be described thus: Selective activity: geometric mean MIC in Enterococcus. The settings on record: geometric mean over Enterococcus strains. Type of assay: cell-based.
Assay [1] deals with S. aureus ATCC 25923 MS 319. The experiment in a line: MIC, standard microdilution method (NCCLS M7-A5). The assay is classed as cell-based, Staphylococcus aureus. Conditions: for MIC: Staphylococcus aureus, ATCC25923, read-out: In vitro activities against bacteria, MIC.
Assay [2] concerns S. aureus ATCC 43300 MR 214. The assay can be described thus: MIC, standard microdilution method (NCCLS M7-A5). Type of assay: cell-based, Staphylococcus aureus. Conditions: for MIC: Staphylococcus aureus, ATCC43300, read-out: In vitro activities against bacteria, MIC.
In assay [3] the test system is S. pneumoniae ATCC 49619 PR 215. The assay can be described thus: MIC, standard microdilution method (NCCLS M7-A5). The assay is classed as cell-based, Streptococcus pneumoniae. The settings on record: for MIC: Streptococcus pneumoniae, ATCC49619, read-out: In vitro activities against bacteria, MIC. Background: Dilution methods test growth across graded concentrations, often in twofold steps.

Assay [4] has as its system S. epidermidis ATCC 12228 MR 11. The assay can be described thus: microbe, parasite or virus in culture. Type of assay: cell-based, Staphylococcus epidermidis. Conditions: for MIC: Staphylococcus epidermidis, ATCC12228, read-out: In vitro activities against bacteria, MIC.
The target of another assay is T1, human MAO-A (Homo sapiens, UniProt P21397).
T1 construct: purchased Gentest, BD, USA; host or cells: SF9 insect cells (membranes)
T1 sequence (P21397 1-527): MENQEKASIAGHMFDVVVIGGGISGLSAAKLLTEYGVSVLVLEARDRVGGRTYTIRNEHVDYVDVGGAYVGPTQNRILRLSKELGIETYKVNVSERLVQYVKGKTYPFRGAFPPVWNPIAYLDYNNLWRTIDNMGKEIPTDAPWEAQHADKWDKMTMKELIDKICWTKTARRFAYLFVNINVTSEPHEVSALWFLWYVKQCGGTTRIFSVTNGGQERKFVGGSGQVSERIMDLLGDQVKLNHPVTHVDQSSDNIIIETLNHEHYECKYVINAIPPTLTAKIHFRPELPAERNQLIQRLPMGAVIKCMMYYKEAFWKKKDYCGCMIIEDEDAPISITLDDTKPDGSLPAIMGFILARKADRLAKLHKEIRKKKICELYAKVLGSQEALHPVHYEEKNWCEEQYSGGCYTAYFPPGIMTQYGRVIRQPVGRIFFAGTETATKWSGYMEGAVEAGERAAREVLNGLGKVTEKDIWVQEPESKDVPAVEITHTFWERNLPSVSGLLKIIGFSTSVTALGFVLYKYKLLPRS
The assay can be described thus: In vitro MAO-A enzymatic activity (kynuramine substrate, fluorescence). The assay is classed as biochemical. The settings on record: compound at 10 μM.

Another assay concerns the target T2, human MAO-B (Homo sapiens, UniProt P27338).
T2 construct: purchased Gentest, BD, USA; host or cells: SF9 insect cells (membranes)
T2 sequence (P27338 1-520): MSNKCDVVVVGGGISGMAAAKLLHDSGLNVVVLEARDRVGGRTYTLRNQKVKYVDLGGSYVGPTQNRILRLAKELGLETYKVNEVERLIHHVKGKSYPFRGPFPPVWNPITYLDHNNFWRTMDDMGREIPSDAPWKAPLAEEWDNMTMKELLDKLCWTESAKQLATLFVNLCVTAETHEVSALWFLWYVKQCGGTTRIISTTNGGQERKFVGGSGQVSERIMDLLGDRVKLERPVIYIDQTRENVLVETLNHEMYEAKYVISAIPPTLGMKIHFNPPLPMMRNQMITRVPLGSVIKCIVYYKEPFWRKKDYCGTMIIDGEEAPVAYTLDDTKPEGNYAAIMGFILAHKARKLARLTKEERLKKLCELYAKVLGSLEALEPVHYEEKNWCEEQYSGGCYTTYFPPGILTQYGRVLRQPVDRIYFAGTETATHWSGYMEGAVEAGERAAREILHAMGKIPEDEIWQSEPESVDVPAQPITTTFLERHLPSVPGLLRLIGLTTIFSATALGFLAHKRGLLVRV
The experiment in a line: In vitro MAO-B enzymatic activity (kynuramine substrate, fluorescence). The assay is classed as biochemical. The settings on record: human MAO-B, compound at 1 μM.

Assay [5] has as its system Moxorella, Pasteurella and Bacteroides spp. Conditions: background literature; cited from earlier work.
Where [6] appears, read: S. pneumoniae ATCC 49619 PR 215.
Where [7] appears, read: S. epidermidis ATCC 12228 MR 11.
[8] abbreviates: listed as Comparartive Example 1.

Molecules are shown by their SMILES. In brackets after ≈: the same amount, converted by molar mass. Where two headings read alike, the source gives them in different places.

Turning to `O=C(NC[C@H]1CN(c2ccc(N3CCOCC3)c(F)c2)C(=O)O1)c1coc2ccccc12` [Comparative Example 2, reference compound], in the assay with Staphylococcus, the “Geometric Mean MIC Staphylococcus” value is 12.7 µg/mL and the “Selectivity Enterococcus/Staphylococcus” value is 0.3. In the assay on Enterococcus, this molecule yielded a Geometric Mean MIC Enterococcus of 3.4 µg/mL.
For the molecule `O=C(NC[C@H]1CN(c2ccc(N3CCOCC3)c(F)c2)C(=O)O1)c1cc2cc([N+](=O)[O-])ccc2o1` [Comparative Example 3, reference compound], in the assay on Staphylococcus, the “Geometric Mean MIC Staphylococcus” value was found to be 0.8 µg/mL and the “Selectivity Enterococcus/Staphylococcus” value turned out to be 0.9. The molecule also displayed a Geometric Mean MIC Enterococcus in the assay on Enterococcus of 0.7 µg/mL.
`COc1ccc2cc(C(=O)NC[C@H]3CN(c4ccc(N5CCOCC5)c(F)c4)C(=O)O3)c(C)nc2c1` [Ex. 1, 7-methoxy-2-methyl-N-[[(5S)-3-[3-fluoro-4-(4-morpholinyl)phenyl]-2-oxo-5-oxazolidinyl]methyl]-3-quinolinecarboxamide]: in the assay on Staphylococcus, the MIC worked out at 0.6 µg/mL (≈ 1.21 µM) and the “Selectivity Enterococcus/Staphylococcus” value worked out at 9.5. The Geometric Mean MIC Enterococcus in the assay on Enterococcus amounted to 5.7 µg/mL.
With `COc1ccc2cc(C(=O)NC[C@H]3CN(c4ccc(N5CCN(C(C)=O)CC5)c(F)c4)C(=O)O3)c(C)nc2c1` [Ex. 3, 7-methoxy-2-methyl-N-[[(5S)-3-[3-fluoro-4-(4′-acetyl-4-piperazinyl)-phenyl]-2-oxo-5-oxazolidinyl]methyl]-3-quinolinecarboxamide], in the assay on Staphylococcus, the MIC is 0.4 µg/mL (≈ 0.747 µM) and the “Selectivity Enterococcus/Staphylococcus” value stood at 14.3. This molecule also returned a Geometric Mean MIC Enterococcus in the assay on Enterococcus of 5.7 µg/mL.
Take `COc1ccc2cc(C(=O)NC[C@H]3CN(c4ccc(N5CCS(=O)(=O)CC5)c(F)c4)C(=O)O3)c(C)nc2c1` [Ex. 8, 7-methoxy-2-methyl-N-[[(5S)-3-[3-fluoro-4-(1,1-dioxothiomorpholin-4-yl)-phenyl]-2-oxo-5-oxazolidinyl]methyl]-3-quinolinecarboxamide]: the MIC in assay [1] (S. aureus ATCC 25923 MS 319) came to 2 µg/mL (≈ 3.69 µM); in assay [2] (S. aureus ATCC 43300 MR 214), 2 µg/mL (≈ 3.69 µM); in [3] (setting [6]), 1 µg/mL (≈ 1.84 µM); in assay [4], 2 µg/mL (≈ 3.69 µM).
As to `COc1ccc2nc(C)c(C(=O)NC[C@H]3CN(c4ccc(N5CCOCC5)c(F)c4)C(=O)O3)cc2c1` [Ex. 18], in the assay on Staphylococcus, the MIC came to 1 µg/mL (≈ 2.02 µM) and the “Selectivity Enterococcus/Staphylococcus” value amounted to 8.0. In the assay with Enterococcus, this molecule returned a Geometric Mean MIC Enterococcus of 8 µg/mL.
On to `C=CC(=O)N1CCN(c2ccc(N3C[C@H](CNC(=O)c4cc5ccc(OC)cc5nc4C)OC3=O)cc2F)CC1` [Ex. 24], for which, in the assay with Staphylococcus, the “Geometric Mean MIC Staphylococcus” value amounted to 0.6 µg/mL and the “Selectivity Enterococcus/Staphylococcus” value was 27.0. Also, the Geometric Mean MIC Enterococcus with Enterococcus was 16 µg/mL.
For the molecule `COc1ccc2cc(C(=O)NC[C@H]3CN(c4ccc(N5CCN(C(=O)C6=NNC(=O)CC6)CC5)c(F)c4)C(=O)O3)c(C)nc2c1` [Ex. 29], in the assay with Staphylococcus, the “Geometric Mean MIC Staphylococcus” value was 1.7 µg/mL and the “Selectivity Enterococcus/Staphylococcus” value is given as 18.8. The Geometric Mean MIC Enterococcus in the assay with Enterococcus is 32 µg/mL.
Consider `COc1ccc2cc(C(=O)NC[C@H]3CN(c4ccc(N5CCN(C(=O)c6c[nH]cn6)CC5)c(F)c4)C(=O)O3)c(C)nc2c1` [Ex. 31], for which the “In vitro activities against bacteria, MIC” value (“In vitro activities” for short) in assay [1] (S. aureus ATCC 25923 MS 319) was found to be 4.00 µg/mL; in assay [2] (S. aureus ATCC 43300 MR 214) it was 2.00 µg/mL; in assay [3] (setting [6]) it was 4.00 µg/mL; in assay [4] (setting [7]) it was 2.00 µg/mL.
With `COc1ccc2cc(C(=O)NC[C@H]3CN(c4ccc(N5CCN(C(=O)C6CC6)CC5)c(F)c4)C(=O)O3)c(C)nc2c1` [Ex. 34], on human MAO-A, the “MAO-A % inh (10 μM)” value is 7%. Besides, the “In vitro activities” value in assay [1] (S. aureus ATCC 25923 MS 319), in [2] (S. aureus ATCC 43300 MR 214), in assay [3] (setting [6]) and in assay [4] (setting [7]) was 0.50 µg/mL in each case. The “Geometric Mean MIC Staphylococcus” value in the assay with Staphylococcus is 0.4 µg/mL. For the same molecule, in the assay with Staphylococcus, the “Selectivity Enterococcus/Staphylococcus” value is reported as 100. Further, in the assay with Enterococcus, the Geometric Mean MIC Enterococcus is 40.3 µg/mL. Moreover, on human MAO-B, the “MAO-B % inh (1 μM)” value was determined as 8%.
As for `COc1ccc2cc(C(=O)NC[C@H]3CN(c4ccc(N5CCN(C(=O)CO)CC5)c(F)c4)C(=O)O3)c(C)nc2c1` [Ex. 35], in the assay on Staphylococcus, the “Geometric Mean MIC Staphylococcus” value stood at 0.6 µg/mL and the “Selectivity Enterococcus/Staphylococcus” value is 8.3. In addition, the “Geometric Mean MIC Enterococcus” value with Enterococcus is recorded as 5.0.
For `COc1ccc2cc(C(=O)NC[C@H]3CN(c4ccc(N5CCN(C(=O)c6cccnc6)CC5)c(F)c4)C(=O)O3)c(C)nc2c1` [Ex. 42], the “MAO-A % inh (10 μM)” value on human MAO-A was 5%. Moreover, the “In vitro activities” value in assay [1] is 1.00 µg/mL; in [2], 0.06 µg/mL; in [3] it was 1.00 µg/mL; in [4] it was 0.5 µg/mL. In addition, the “MAO-B % inh (1 μM)” value at human MAO-B was 7%.
As to `CC(=O)NC[C@H]1CN(c2ccc(N3CCOCC3)c(F)c2)C(=O)O1` [Linezolid, N-[[(5S)-3-[3-fluoro-4-(4-morpholinyl)phenyl]-2-oxo-5-oxazolidinyl]methyl]acetamide, reference compound], the inhibition at 10 µM on human MAO-A (read-out: MAO-A % inh (10 μM)) turned out to be 41%. The MIC was 2 µg/mL (≈ 5.93 µM) in assay [1] (S. aureus ATCC 25923 MS 319); 1 µg/mL (≈ 2.96 µM) in assay [2] (S. aureus ATCC 43300 MR 214); 2 to 8 µg/mL in assay [5]; 2 µg/mL (≈ 5.93 µM) in assay [3] (setting [6]); 1 µg/mL (≈ 2.96 µM) in [4]. Moreover, on human MAO-B (read-out: MAO-B % inh (1 μM)), the inhibition at 1 µM came out at 62%.
`COc1ccc2cc(C(=O)NC[C@H]3CN(c4ccc(N5CCOCC5)c(F)c4)C(=O)O3)c(C)nc2c1` [compound 1, reference compound]: the “Geometric Mean MIC Staphylococcus” value with Staphylococcus amounted to 5.7 µg/mL. For the same molecule, in the assay on Staphylococcus (setting [8]), the “Selectivity Enterococcus/Staphylococcus” value is 0.8. In the assay with Enterococcus (setting [8]), the Geometric Mean MIC Enterococcus was determined as 4.8 µg/mL.

Source of the values: US7759351B2, “Oxazolidinone compounds, and compositions and methods related thereto” (Ferrer Internacional, S.A., priority 2005, dated 2010).
